The values below come from patent US12319674B2, “Isatin derivatives” (KING SAUD UNIVERSITY, priority 2020, dated 2025).

What all share (experiment): NCI-60 Human Tumor Cell Lines Screen, one-dose screen
What all share (format): cell-based

The subject of experiment [1] is Breast Cancer cells (MDA-MB-468). Conditions: MDA-MB-468 cells, 10^-5 M, 2 days. As to the method:
(§1) Anticancer activities of the exemplary isatin derivatives were tested by the NIH National Cancer Institutes (NCI), with results summarized in FIGS. 2A-3B. The anticancer activity was tested by NCI, division of cancer treatment and diagnosis, according to the NCI-60 Human Tumor Cell Lines Screen, one-dose screen (https://dtp.cancer.gov/discovery_development/nci-60/methodology.htm). This screening allows for qualified synthesized chemicals to be subjected to an anticancer test against 60 different cancer cell lines. Briefly, exemplary T1 or T2 was dissolved in DMSO:Glycerol, 9:1, at 4 mmol and kept frozen prior to use. For inoculation, a 96 well microtiter was used for the study of different cell lines. Based on the doubling time for each cell line, the well density varied. The plates were incubated at 37° ° C., 5% CO2, 95% air and 100% relative humidity for 1 day. The exemplary T1 or T2 or a control were added to the plates at a concentration of 10^−5 M. After 2 more days, the plates were fixed and stained to identify growth inhibition relative to cells without drug treatment. Anti-proliferative activity was determined based on careful analysis of historical DTP screening data. Cell death and net growth inhibition were determined based on a time zero control. A value of 100 indicates no growth inhibition. A value of 40 indicates 60% growth inhibition. A value of 0 indicates no net growth over the course of the experiment. A value of −40 indicates 40% lethality.

Experiment [2] deals with Melanoma cells (MDA-MB-435). The note with it: MDA-MB-435 cells, 10^-5 M, 2 days. How it is done:
as §1

For experiment [3], the system named is Non-Small Cell Lung Cancer cells (EKVX). The note with it: 10^-5 M, 2 days. How it is done:
as §1

Experiment [4] concerns Renal Cancer cells (CAKI-1). The note with it: CAKI-1 cells, 10^-5 M, 2 days. As to the method: as §1

Regarding `O=C1Nc2ccc(Cl)cc2/C1=N/N=C/c1ccsc1` [T2, 5-chloro-3-((E)-(thiophen-3-ylmethylene) hydrazono) indolin-2-one], in experiment [1], the “anticancer activity compared to control (reduction)” value is roughly 73%.

For `O=C1Nc2ccccc2/C1=N\N=Cc1cccs1` [T1, 3-((E)-(thiophen-2-ylmethylene)hydrazono)indolin-2-one], the “anticancer activity compared to control (reduction)” value in experiment [2] is roughly 83%; in experiment [3], roughly 54%; in experiment [4], roughly 48%.
